In patent US4965194A, “Pyruvate oxidase and an analytical method using the same” (Toyo Boseki Kabushiki Kaisha, priority 1986, dated 1990) one finds Km data, which are given here for one compound.

Structures are written as SMILES.

In this experiment the test system is pyruvate oxidase (EC 1.2.3.3) of Lactobacillus sp. TE6103 (FERM BP-1419). Briefly: Km determination of the thermostable pyruvate oxidase (physicochemical characteristics of the enzyme). It is filed as biochemical. Conditions: purified enzyme from Lactobacillus sp. TE6103; activity assay at 37° C., pH 7.0, with thiamine pyrophosphate and FAD; read-out: Km for pyruvic acid. The protocol: The activity of the resulting pyruvate oxidase can be measured as follows:
First, from the mixture of the ingredients listed above, 2.5 ml is sampled and placed in a test tube, and 0.5 ml of a 0.3 M solution of potassium pyruvate is added thereto. The mixture is then heated at 37° C. for 5 minutes. To this, 0.05 ml of the enzyme solution is added, and the mixture gently stirred; then, the changes (ΔOD) in the optical density at 500 nm over 1 minute of the mixture at 37° C. are monitored in a spectrophotometer against water. Next, in place of the enzyme solution, 0.05 ml of a 50 mM potassium phosphate buffer (pH 7.0) is used, and the same steps as above are followed to measure the changes (ΔOD) in optical density over 1 minute; this is the blank test. Under these conditions, the enzyme activity of pyruvate oxidase that produces 1 μmol of hydrogen peroxide is taken to be one unit (U).
The physicochemical characteristics of the enzyme activity of this invention will be shown below.

In the case of `CC(=O)C(=O)O` [pyruvic acid], the Km is approximately 400 µM.
